How the values were obtained:
[1] = molecular target: T1, PSMA (Homo sapiens, UniProt Q04609); assay: Competitive binding assay on C4-2 cells; conditions: reference ^68Ga-labelled PSMA-HBED-CC dimer (PSMA-10), mean ± SD
T1 construct: host or cells: C4-2 cells (LNCaP subline)
Protocol: (§1) In vitro and in vivo experiments were performed using the PSMA-positive C4-2 cell line, a subline of the LNCaP (lymph node carcinoma of the prostate) cell line (CRL-3314; American Type Culture Collection). C4-2 cells were cultivated in RPMI-1640 (PAN Biotech) supplemented with 10% fetal calf serum and stable glutamine (PAN Biotech). Cells were grown at 37 °C and incubated in humidified air equilibrated with 5% CO2.
A MultiScreenHTS-DV filter plate was incubated at room temperature with 100 μl phosphate-buffered saline (PBS) containing 1% bovine serum albumin (BSA) per well for 30 min. After removal of the PBS/BSA solution, 1 × 10^5 C4-2 cells in Opti-MEM were added to each well. All nonlabelled compounds were dissolved in 300 μl Opti-MEM at the following concentrations: 0, 0.5, 1, 2.5, 5, 10, 25, 50, 100, 500, 1,000 and 5,000 nM. Subsequently, 3 μl of the radiolabelled compound was added, and 50 μl of this mixture was taken to obtain a solution containing 0.75 nM of the radiolabelled ligand. After 45 min incubation at 37 °C, the cells were washed twice with PBS, the radioactivity accumulated in the cells was collected, and the remaining radioactivity was measured in a gamma counter. The inhibitory potency was determined using ^68Ga-labelled PSMA-HBED-CC dimer (i.e. PSMA-10) as the reference. The 50% inhibitory concentration was calculated using a nonlinear regression algorithm (GraphPad Prism 5.01 software). The experiments were performed in quadruplicate.

[2] = system: C4-2 tumour-bearing mice; assay: Planar scintigraphic imaging in tumour-bearing mice; assay type: in vivo; conditions: ^203Pb-labelled, 1 h after injection, Fig. 3
Protocol: The in vivo experiments were carried out in accordance with the laws on animal welfare of the Federal Republic of Germany. For imaging and biodistribution studies, male BALB/c nu/nu mice (20–25 g; Charles River) bearing C4-2 tumour xenografts were used. The mice were inoculated subcutaneously in the right trunk with 5 × 10^6 C4-2 cells in 50% Matrigel in Opti-MEM (1×). For small-animal imaging the mice were anaesthetized with 2% sevoflurane, and then 0.1 nmol (1.0 MBq) of the respective ^203Pb ligand was injected into a tail vein. Serial planar scans were performed using a Gamma Imager-sct (Biospace Lab, Paris, France) with a parallel collimator (35 mm/1.8 mm/0.2 mm) after 10 min, 1 h, 4 h and 24 h. Based on the imaging results, compound CA012 was chosen for biodistribution studies. Experiments were performed in triplicate. For biodistribution, 0.025 nmol (1 MBq) of labelled compound per mouse was administered by injection into a tail vein. After 10 min, 1 h, 4 h and 24 h the mice were killed, the organs were dissected and weighed, and activity was measured using a gamma counter (Packard Cobra Auto-gamma). The organ uptakes were calculated as the percentage of the injected dose per gram of tissue (%ID/g).

[3] = system: C4-2 cells; assay: Determination of specific internalization ratio; assay type: cell-based
Protocol: as §1
For determination of the specific internalization ratio, 24-well plates were incubated for 20 min with 0.1% poly-L-lysine in PBS at room temperature and washed once with PBS. In the next step, 1 ml RPMI containing 1 × 10^5 C4-2 cells was added to each well and incubated overnight. The conditions during the experiment for each compound were: incubation at 37 °C or 4 °C with or without receptor blocking via 2-(phosphonomethyl)pentanedioic acid (2-PMPA; Axxora) at a final concentration of 500 μM. The cells were then incubated with 250 μl of a 30 nM solution of ^203Pb-labelled compound. The plates were incubated either for 45 min in a water bath at 37 °C or on ice at 4 °C. The cells were then washed three times with 1 ml ice-cold PBS and incubated with 0.5 ml glycine (50 mM in HCl, pH 2.8) for 5 min. After an additional washing step with 1 ml ice-cold PBS, the cells were lysed with 0.5 ml 0.3 M NaOH and collected, and the radioactivity was measured with a gamma counter for 1 min. The specific cellular uptake was determined as the percentage of initially added radioactivity bound per 10^6 cells (%IA/10^6 cells) by subtraction of the respective uptake under blocking conditions. All experiments were performed in triplicate.

T1 sequence (Q04609 whole entry): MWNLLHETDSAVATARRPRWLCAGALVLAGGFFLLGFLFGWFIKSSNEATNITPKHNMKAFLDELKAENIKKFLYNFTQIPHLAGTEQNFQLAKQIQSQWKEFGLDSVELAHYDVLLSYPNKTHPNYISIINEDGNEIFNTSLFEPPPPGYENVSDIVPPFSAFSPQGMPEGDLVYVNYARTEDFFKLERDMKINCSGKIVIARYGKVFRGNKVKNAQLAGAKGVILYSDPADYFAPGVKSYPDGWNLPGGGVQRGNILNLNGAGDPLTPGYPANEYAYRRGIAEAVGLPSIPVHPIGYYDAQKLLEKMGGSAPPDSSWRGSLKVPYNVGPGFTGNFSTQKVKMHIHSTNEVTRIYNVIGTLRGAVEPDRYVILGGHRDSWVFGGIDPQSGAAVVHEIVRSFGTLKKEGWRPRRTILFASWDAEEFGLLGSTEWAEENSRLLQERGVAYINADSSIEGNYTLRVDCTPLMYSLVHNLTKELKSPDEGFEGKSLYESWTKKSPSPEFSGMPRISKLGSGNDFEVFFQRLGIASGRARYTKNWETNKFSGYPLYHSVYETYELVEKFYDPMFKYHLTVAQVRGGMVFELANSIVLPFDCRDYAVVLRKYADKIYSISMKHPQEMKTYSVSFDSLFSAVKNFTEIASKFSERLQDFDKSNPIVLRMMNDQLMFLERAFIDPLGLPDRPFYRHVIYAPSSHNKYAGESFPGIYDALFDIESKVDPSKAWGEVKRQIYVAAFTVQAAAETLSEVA

Compound: NC(=O)CN1CCN(CC(N)=O)CCN(CC(N)=O)C(Cc2ccc(NC(=S)NC(Cc3ccc4ccccc4c3)C(=O)NCCCC[C@H](NC(=O)N[C@@H](CCC(=O)O)C(=O)O)C(=O)O)cc2)CN(CC(N)=O)CC1 (stereo partly shown) [CA008]
- Ki [1]: 28.8 ± 3.4 nM
- tumour uptake in mice (planar scintigraphy) [2]: low tumour uptake

Compound: NC(=O)CN1CCN(CC(N)=O)CCN(CC(N)=O)C(Cc2ccc(NC(=S)NCC3CCC(C(=O)NC(Cc4ccc5ccccc5c4)C(=O)NCCCC[C@H](NC(=O)N[C@@H](CCC(=O)O)C(=O)O)C(=O)O)CC3)cc2)CN(CC(N)=O)CC1.[203Pb+2] (stereo partly shown) [^203Pb-CA009]
- specific ligand-induced internalization [3]: approximately 27 %ID/10^6 cells
- Specific lysate (specific internalization) ([3]; ^203Pb-labelled compound 30 nM, 45 min, 2-PMPA blocking subtracted, mean ± SD n = 3): 27.4 ± 2.4 %IA/10^6 cells

Source: article PMC6451745, “Development and dosimetry of ^203Pb/^212Pb-labelled PSMA ligands: bringing “the lead” into PSMA-targeted alpha therapy?” (European Journal of Nuclear Medicine and Molecular Imaging, 2019)
